Data taken from publication PMC6980506, “Comparative pharmacokinetics and pharmacodynamics of the advanced Retinol-Binding Protein 4 antagonist in dog and cynomolgus monkey” (PLoS ONE, 2020).

What was measured:
[1] = Metabolic stability in human liver microsomes; type: in vitro ADME; settings: both sexes, pH 7.4, 1 mg/mL, read-out: Microsomal Stability (% Remaining at 30 min)
Method: All measurements were done in duplicate. Pooled mixed gender human donor microsomes, male beagle dog microsomes and male cynomolgus monkey were obtained from BioIVT (Baltimore, MD). […] A mixture containing 50 mM potassium phosphate buffer pH 7.4 and 1 mg/mL liver microsomes was pre-warmed for 10 min at 37°C in a shaking water bath, followed by the addition of test compound. Final DMSO concentration in the reaction mix was 0.1%. […] The final volume of the reaction mixture was 800 μL, containing 1 mg/mL liver microsomes, and 1 μM test compound. Aliquots (100 μL) of reaction mixtures were removed from the incubation plate at pre-defined timepoints and mixed with 150 μL of ice-cold acetonitrile, incubated on ice for 15 min, and samples were centrifuged (3,600 rpm, 10 min, 4°C) to precipitate protein. The supernatants were diluted 1:1 (v/v) with water containing the internal standard and subjected to the LC/MS analysis.

[2] = Plasma protein binding by equilibrium dialysis, dog plasma; type: in vitro ADME; settings: pH 7.4, average and standard deviation, read-out: %PPB, plasma protein binding (converted)
Method: In vitro ADME tests were conducted at AMRI, Albany, NY.

[3] = Metabolic clearance in human hepatocytes; type: in vitro ADME; settings: cryopreserved hepatocytes, read-out: Hepatocyte CLint (intrinsic clearance)
Method: All measurements were done in duplicate. Testosterone and 7-hydroxycoumarin were used as positive controls. Pooled cryopreserved human hepatocytes, cryopreserved male beagle dog hepatocytes, and cryopreserved male cynomolgus monkey hepatocytes were obtained from BioIVT (Baltimore, MD). Compound at 1 μM was incubated with 1 x 10^6 cells. Final DMSO concentration in the reaction mix was 0.1%. Aliquots (100 μL) of reaction mixtures were removed from the incubation plate at different timepoints and mixed with 150 μL of ice-cold acetonitrile. After incubation on ice for 15 min, the samples were centrifuged (3,600 rpm, 10 min, 4°C) to precipitate protein. The supernatants were diluted 1:1 (v/v) with water containing internal standards and subjected to the LC/MS analysis. Hepatic clearance was calculated using the well-stirred liver model

[4] = parameters: method as in PMID 26181715; settings: human liver microsomes; cited from earlier work
bisretinoid synthesis = test system: bisretinoid synthesis; parameters: method as in PMID 29871924; settings: Abca4-/- mouse model of Stargardt disease; cited from earlier work

- remaining at 0.5 h, 1 μM [1]: 94%
- fraction unbound at 4 h, 1 μM [2]: 0.003
- hepatocyte CLint at 1 μM [3]: < 0.7 µL/min/1e6 cells
SMILES: Cc1cc(C(=O)O)nc(N2C[C@H]3C[C@@H](c4ccccc4C(F)(F)F)C[C@H]3C2)n1 [BPN-14136]
- stability in liver microsomes, % remaining at 30 min [4]: > 90%
- bisretinoid synthesis (bisretinoid synthesis): significantly inhibited bisretinoid synthesis
